# Data published in paper PMC9957399, “New Insights into the Inhibition of Hesperetin on Polyphenol Oxidase: Inhibitory Kinetics, Binding Characteristics, Conformational Change and Computational Simulation” (Foods, 2023).
# Marks after values point to notes of the source that are not given here.
# Key:
# PPO (monophenolase) = PPO (monophenolase) (Agaricus bisporus, UniProt C7FF04); test: PPO activity assay, monophenolase (L-tyrosine oxidation); format: biochemical, mushroom
# Description: To determine the monophenolase inhibitory activity of hesperetin, PPO (0.2 μΜ) was mixed with various concentrations of hesperetin (0, 25, 50, 100, 150, 200, 250 and 500 μM), and the mixtures were incubated at 30 °C. After 1 h, L-tyrosine (0.5 mΜ, substrate) was added to the mixtures, and the detection began.
# PPO [1] = system: T1, PPO; test: Fluorometric titration (fluorescence quenching of PPO); format: binding, mushroom
# T1 construct: purchased Worthington Biochemical Co. (Lakewood, CO, USA)
# Description: Fluorescence spectra were measured at 298, 304 and 310 K by a fluorophotometer (F–7000, Hitachi, Tokyo, Japan). Briefly, the concentration of PPO was 2.0 μM, and the same volume of hesperetin was added into the PPO solution (2.0 mL) 10 times (0→25.0 μM). After each addition of hesperetin, 3 min was timed to equilibrate the mixed system. Then, the emission spectra (290–500 nm) were scanned at fixed excitation wavelength (280 nm).
# To deduct the effect of internal filtration, all measured fluorescence data were processed through Formula (5):(5) FC=FMe^(A1+A2)/2 where FC and FM represent the corrected and detected fluorescence, respectively. A1 and A2 stand for the absorbance values of hesperetin at excitation and emission wavelengths, respectively.
# The Stern–Volmer curves for PPO fluorescence quenched by hesperetin at each temperature were obtained through Equation (6):(6) F0/F=1+Kqτ0[Q]=1+Ksv[Q] where F and F0 denote the fluorescence intensity of PPO with and without hesperetin, respectively. Ksv, Kq and [Q] represent the fluorescence quenching constant, quenching rate constant and the concentration of hesperetin, respectively. τ0 represents the average fluorophore lifetime without hesperetin, and its value is usually equal to 10^−8 s.
# Based on the following equation, the information about the interaction between hesperetin and PPO were obtained, including binding constant (Ka) and binding number (n):(7) logF0−F/F=nlogKa−nlog1/[Qt]−(F0−F)[Pt]/F0 where [Qt] and [Pt] stand for the concentrations of hesperetin and PPO. […] The n values at 298, 304 and 310 K were all equal to 1, implying that only one site existed when hesperetin interacted with PPO.
# The values of ΔH°, ΔS° and ΔG°, which refer to enthalpy change, entropy change and free energy change, respectively, were obtained by the van ’t Hoff equations [42]:(8) logKa=−ΔH°/2.303RT+ΔS°/2.303R (9) ΔG°=ΔH°−TΔS° where T represents temperature; R represents gas constant, and its value is 8.314 J mol^−1 K^−1.
# PPO [2] = target: PPO (Agaricus bisporus, UniProt C7FF04); test: Kinetic analysis of inhibitory type (v vs [PPO], Lineweaver–Burk plots, L-dopa); format: biochemical, mushroom; conditions: for inhibitory type: Lineweaver–Burk plots, hesperetin 0, 300, 600, 1200 μM
# Sequence of PPO (Agaricus bisporus, UniProt C7FF04) (C7FF04 1-392): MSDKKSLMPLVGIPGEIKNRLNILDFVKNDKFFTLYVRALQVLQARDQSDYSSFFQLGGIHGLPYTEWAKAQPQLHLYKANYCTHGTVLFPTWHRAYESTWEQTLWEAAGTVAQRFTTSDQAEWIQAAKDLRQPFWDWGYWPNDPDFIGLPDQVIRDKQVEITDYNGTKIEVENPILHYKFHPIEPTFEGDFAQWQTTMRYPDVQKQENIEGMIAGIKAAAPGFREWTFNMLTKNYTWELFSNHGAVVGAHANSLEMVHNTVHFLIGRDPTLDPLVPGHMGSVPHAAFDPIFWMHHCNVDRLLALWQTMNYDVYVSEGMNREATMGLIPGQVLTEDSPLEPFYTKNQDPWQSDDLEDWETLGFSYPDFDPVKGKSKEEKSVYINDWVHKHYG
# Sequence of PPO (Agaricus bisporus, UniProt C7FF04) (G1K3P4 entry or part of it, further chain): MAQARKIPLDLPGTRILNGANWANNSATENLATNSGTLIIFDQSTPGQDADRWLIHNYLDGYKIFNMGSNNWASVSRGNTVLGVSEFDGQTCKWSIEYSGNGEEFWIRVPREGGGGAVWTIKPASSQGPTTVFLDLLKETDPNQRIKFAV
# Excerpt: The inhibitory type of hesperetin against PPO could be evaluated using Lineweaver–Burk plots, and the mixed inhibition was described through Equation (1):(1) 1/v=Km/Vmax(1+[I]/Ki)1/[S]+1/Vmax(1+[I]/αKi) where v and Vmax represent enzyme reaction velocity and its maximum value, respectively. [I], [S] and Km are the concentrations of hesperetin and L-dopa, and the Michaelis–Menten constant, respectively. α denotes the apparent coefficient and Ki represents dissociation constant of hesperetin binding with free PPO, which can be calculated using the secondary Equations (2) and (3). (2) Slope=Km/Vmax+Km[I]/VmaxKi (3) Y-intercept=1/Vmaxapp=1/Vmax+1/αVmaxKi[I]
# At different concentrations of hesperetin, the effect on the enzymatic reaction rate (ΔOD/min) by increasing the concentrations of PPO were shown in Figure 1E. […] As the concentration of hesperetin increased, the slopes of the lines declined.
# Four lines intersected in the second quadrant. Either the slopes or the Y-intercept of four lines augmented with the rising concentrations of hesperetin, which represented the values of Km increased in a concentration-dependent manner while that of Vmax decreased. […] The inhibition mechanism of hesperetin against PPO deserved further exploration. […] Thus, hesperetin may have a better chance to bind with free PPO instead of PPO–hesperetin complex.
# PPO [3] = system: PPO; parameters: method as in PMID 22093614; conditions: cited from earlier work
# monophenolase = target: monophenolase; parameters: method as in PMID 28873682; conditions: previous study; read-out: IC50 on the inhibition of monophenolase activity; cited from earlier work
# Sequence of PPO (monophenolase) (C7FF04 1-392): as the sequence (C7FF04 1-392) above
# Sequence of PPO (monophenolase) (G1K3P4 1-150 partner): as the sequence (G1K3P4 entry or part of it, further chain) above
structure (smiles),measurement,setting,value
"COc1ccc([C@@H]2CC(=O)c3c(O)cc(O)cc3O2)cc1O [hesperetin, Hesperetin]",lag time of L-tyrosine oxidation,"PPO (monophenolase); hesperetin at 500.0 μM, extended from 1.08 min without inhibitor",10.33 min
same,remaining activity at 100 µM,PPO (monophenolase); read-out: residual activity of PPO (monophenolase),41.2%
same,Kq (quenching rate constant),"PPO [1]; 298, 304 and 310 K, τ0 = 10^−8 s, compared with maximum diffusion collision quenching constant",> 2e+10 L/mol/s
same,Ka,PPO [1]; 298 K,19800 L/mol
same,Ka (binding constant),PPO [1]; 298 K,1.98 ± 0.01 ^a ×10^4 L mol^−1
same,Ksv,PPO [1]; 298 K,(1.71 ± 0.01) × 10^4 L mol^−1
same,Ksv (quenching constant),PPO [1]; 298 K,1.71 ± 0.01 ^a ×10^4 L mol^−1
same,n (number of binding sites),PPO [1]; 298 K,1.23 ± 0.03
same,Ka,PPO [1]; 304 K,20500 L/mol
same,Ka (binding constant),PPO [1]; 304 K,2.05 ± 0.02 ^b ×10^4 L mol^−1
same,Ksv,PPO [1]; 304 K,(1.76 ± 0.02) × 10^4 L mol^−1
same,Ksv (quenching constant),PPO [1]; 304 K,1.76 ± 0.02 ^b ×10^4 L mol^−1
same,n (number of binding sites),PPO [1]; 304 K,1.08 ± 0.01
same,Ka,PPO [1]; 310 K,22200 L/mol
same,Ka (binding constant),PPO [1]; 310 K,2.22 ± 0.05 ^c ×10^4 L mol^−1
same,Ksv,PPO [1]; 310 K,(2.09 ± 0.02) × 10^4 L mol^−1
same,Ksv (quenching constant),PPO [1]; 310 K,2.09 ± 0.02 ^c ×10^4 L mol^−1
same,n (number of binding sites),PPO [1]; 310 K,0.99 ± 0.04
same,n values,"PPO [1]; at 298, 304 and 310 K",1
same,α (apparent coefficient),"PPO [2]; L-dopa substrate, mixed inhibition model",2.93
same,inhibitory type,PPO [2],mixed-type inhibitor
same,inhibitory type,PPO [2]; listed as Hesperetin,mixed inhibitor
same,reversibility of inhibition,"PPO [2]; plots of v versus [PPO], L-dopa 0.5 mM",reversibly inhibited
same,inhibitory type (previous study),PPO [3],competitive PPO inhibitor
O=c1c(O)c(-c2ccc(O)c(O)c2)oc2cc(O)cc(O)c12 [quercetin],IC50,monophenolase,19.4 ± 0.35 µM
